# From publication PMC12691742, “Anti-Cancer Outcome of Glucocorticoid Receptor Transrepression by Synephrine Derivatives in Hematological Malignancies” (International Journal of Molecular Sciences, 2025)
# Read-outs that look alike come from different tables or passages of the source.
# What was measured:
# GR = target: T1, GR (Homo sapiens, UniProt P04150); assay: GR radioligand binding assay, competition with [3H]Dex in K562 cells
# T1 construct: endogenous in cells; host or cells: K562
# T1 sequence (P04150 1-777): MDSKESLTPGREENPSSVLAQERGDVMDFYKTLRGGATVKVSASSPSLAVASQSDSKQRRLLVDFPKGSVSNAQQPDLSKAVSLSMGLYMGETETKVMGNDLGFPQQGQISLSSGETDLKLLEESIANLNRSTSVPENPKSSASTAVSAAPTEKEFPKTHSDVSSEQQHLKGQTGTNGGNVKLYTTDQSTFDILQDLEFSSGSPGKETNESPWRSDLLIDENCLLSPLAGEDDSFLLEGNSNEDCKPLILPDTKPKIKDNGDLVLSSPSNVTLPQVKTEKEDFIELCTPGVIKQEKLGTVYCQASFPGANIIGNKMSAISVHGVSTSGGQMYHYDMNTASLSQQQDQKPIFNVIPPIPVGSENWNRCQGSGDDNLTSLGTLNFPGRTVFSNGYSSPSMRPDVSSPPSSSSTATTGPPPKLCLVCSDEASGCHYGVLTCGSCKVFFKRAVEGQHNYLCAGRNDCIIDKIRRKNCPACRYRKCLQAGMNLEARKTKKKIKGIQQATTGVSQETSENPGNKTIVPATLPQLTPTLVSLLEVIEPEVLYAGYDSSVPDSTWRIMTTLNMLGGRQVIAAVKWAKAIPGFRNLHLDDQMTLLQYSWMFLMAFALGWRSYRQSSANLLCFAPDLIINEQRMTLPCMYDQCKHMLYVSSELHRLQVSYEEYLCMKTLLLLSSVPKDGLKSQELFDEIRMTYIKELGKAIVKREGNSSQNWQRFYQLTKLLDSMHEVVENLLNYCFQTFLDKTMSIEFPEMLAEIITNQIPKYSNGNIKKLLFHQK
# Method: (A,B). […] The stability of the complex was simulated using molecular dynamics in the GROMACS program. (C) GR binding affinity was estimated using a radioligand binding assay. […] Cell lysate radioactivity was measured using a RackBeta 1215 LC (LKB Wallac, Turku, Finland) spectrometer for 4 min. […] The experiments were performed in triplicate (n = 3).
# After 90 min of incubation, the cells were washed twice by centrifugation in cold serum-free medium (1500 rpm, 5 min). The cells were then lysed with RIPA buffer (50 mM Tris (pH 8.0), 150 mM NaCl, 1 mM ethylenediaminetetraacetic acid, 0.1% sodium dodecyl sulfate, 0.5% sodium deoxycholate, 1% triton-X100, 10% glycerin, and protease inhibitor) for 20 min. Lysates were transferred to scintillation liquid, and radioactivity was measured using a RackBeta 1215 LC spectrometer for 4 min. […] IC50 was determined using GraphPad Prism software, Ver.7.0. […] “Top” meant the highest value in dpm and was equal to 100%, while the “bottom” was considered as the lowest value (0%). […] The IC50 values for each ligand were determined by plotting these curves. The experiments were performed in triplicate.
# [1] = tested on: GR phosphorylated by Ser211 in K562 and Granta cells; assay: Western blot of nuclear phospho-GR (Ser211); format: cell-based; settings: 10 h; Dex 10 µM, 4S-C2 50 µM, 8S-E3 50 µM, 10S-E2 15 µM, 13S-G2 25 µM
# Method: (§1) Figure 3 Effects of synephrine derivatives on GR transactivation in Granta lymphoma and K562 leukemia cells. (A) Q-PCR analysis of FKBP51, GILZ, and DDIT4 mRNA expression in K562 and Granta cells. […] The Q-PCR results were normalized to the expression of the housekeeping gene RPL27 and are presented as fold changes compared to the control. The mean ± SD was calculated for three individual samples/condition (n = 3). Statistically significant differences compared to the control: * p < 0.05, ** p < 0.01. (B) The levels of the nuclear fraction of phospho-GR (Ser211) were determined using Western blot analysis (n = 3; characteristic images are presented in the figure). Histone H3 was used as a loading control.
# Western blot analysis was performed as previously described. Proteins were resolved using SDS-PAGE. Membranes were blocked with 5% nonfat milk solution and then incubated with primary antibodies against phosphorylated GR (pGR, Ser211) (“Santa Cruz Biotechnology”, Santa Cruz, CA, USA) overnight at 4 °C. To verify equal protein loading and adequate transfer, the membranes were probed with Histone H3 antibodies (“Cell Signaling”, Boston, MA, USA). Goat anti-rabbit IgGs (“Jackson Immuno Research”, West Grove, PA, USA) were used as secondary antibodies. Signals were detected using ECL reagent and an ImageQuant LAS4000 system (“GE HealthCare”, Chicago, IL, USA). ImageJ 1.54h software was used for densitometry. The experiments were performed in triplicate.
# 7 K562, pGR nuclear 5 Granta, pGR nuclear
# Supplementary Figure S 22. Quantification of Western blot analysis. K562 and Granta cells […]
# μM) and 13S-G2 (25 μ M) for 10 h. Quantification of Western blot anal ysis of p- GR protein levels was done usin g Im a ge J f ree so ftwar e. Statisticall y significant diff eren ces as compared to control: […]
# [2] = tested on: NF-kB activity in K562 cells; assay: NF-kB.Luc reporter assay in K562 cells; format: cell-based; settings: 5 h, 4S-C2 10 µM
# Method: (§2) We analyzed GR TR function using an NF-kB.Luc reporter assay with the irritating inflammatory agent phorbol 13-acetate 12-myristate (TPA) as an inducer of NF-kB signaling and positive control.
# Figure 4 Effects of synephrine derivatives on GR transrepression in Granta lymphoma and K562 leukemia cells. (A) K562 and Granta cells stably infected with the lentiviruses bearing the NF-kB luciferase reporter. Cells were incubated for 5 h with the solvent (control), TPA (5 ng/mL), 4S-C2 (10 µM), 8S-E3 (10 µM), 10S-E2 (1 µM), or 13S-G2 (1 µM). Luciferase activity was determined as described in the Materials and Methods section. (B) IL1-α and IL6 mRNA expression in K562 and Granta cells. […] The mean ± SD was calculated for three individual samples/condition (n = 3). […]
# Lentiviral stocks were generated using the lentiviral expression vector NF-kB. […] The infection efficiency exceeded 90% (tracked by GFP fluorescence).
# (§3) Cells (10^4 cells/well in a 24-well plate), stably expressing Firefly Luciferase under the NF-kB promoter, were treated for 5 h with TPA (12-O-tetradecanoylphorbol-13-acetate, Boston, MA, USA, 10 ng/mL), 4S-C2 (10 µM), 8S-E3 (10 µM), 10S-E2 (1 µM), 13S-G2 (1 µM), or the vehicle. Luciferase activity was measured as described using a commercial Luciferase Assay (“Promega”, Madison, WI, USA) and Luminometer TD 20/20 (“Turner Design Instruments”, San Jose, CA, USA). […]
# [3] = tested on: NF-kB activity in Granta cells; assay: NF-kB.Luc reporter assay in Granta cells; format: cell-based; settings: 5 h, 4S-C2 10 µM, 10S-E2 1 µM
# Method: as §2
# Figure 4 Effects of synephrine derivatives on GR transrepression in Granta lymphoma and K562 leukemia cells. (A) K562 and Granta cells stably infected with the lentiviruses bearing the NF-kB luciferase reporter. Cells were incubated for 5 h with the solvent (control), TPA (5 ng/mL), 4S-C2 (10 µM), 8S-E3 (10 µM), 10S-E2 (1 µM), or 13S-G2 (1 µM). Luciferase activity was determined as described in the Materials and Methods section. (B) IL1-α and IL6 mRNA expression in K562 and Granta cells. Q-PCR results were normalized to the expression of the housekeeping gene RPL27 and are presented as the fold change compared to the control. The mean ± SD was calculated for three individual samples/condition (n = 3). Statistically significant differences compared to the control: * p < 0.05, ** p < 0.01.
# Lentiviral stocks were generated using the lentiviral expression vector NF-kB. Luc was encoded with Firefly Luciferase reporters with the NF-kB-responsive promoter of minimal CMV promoter as a control (“System Bioscience”, Moutain View, CA, USA), along with packing plasmids GAG, REV, and VSVg. HEK-293T cells were transfected with the abovementioned plasmids using TurboFect reagent (“Thermo Scientific”, Waltham, MA, USA) according to the manufacturer’s protocol. […] The infection efficiency exceeded 90% (tracked by GFP fluorescence).
# as §3
# [4] = tested on: FKBP51, GILZ, DDIT4 mRNA expression in K562 and Granta cells; assay: Q-PCR of GR transactivation marker genes; format: cell-based; settings: 4 h (FKBP51, GILZ) or 24 h (DDIT4); Dex 10 µM, 10S-E2 0.1 µM; vs control
# Source text: Q-PCR results were confirmed by Western blot analysis of the level of GR phosphorylated by Ser211, known as a crucial protein modification for GR TA realization because of its binding to short cysteine-rich fragments of the coactivator CREB-binding protein [41].
# as §1
# Total RNA isolation from cell cultures and murine bones, reverse transcription, and Q-PCR were performed as described in [36]. Primers were designed using NCBI Primer-BLAST https://www.ncbi.nlm.nih.gov/tools/primer-blast/, accessed on 25 August 2025 (Supplementary Table S1). Results were normalized to the expression of the housekeeping RPL27 и Rpl27 genes. The experiments were performed in triplicate.
# [5] = tested on: leukemia and lymphoma cells (Granta, K562); design: method as in PMID 39858397; settings: leukemia and lymphoma cells; read-out: cell viability IC50; cited from earlier work
Compound,IC50 (GR) [µM],GR phosphorylation level at Ser211 [1],effect on NF-kB activity [2],effect on NF-kB activity [3],"expression of TA marker genes FKBP51, GILZ, DDIT4 [4]",IC50 [5] [µM],"IC50 (GR; K562 cells, 0.5 µM [3H]Dex, 90 min, n = 3) [µM]"
"CCCCCCNCC(O)c1ccc(OC)cc1 (stereo not drawn) [4S-C2, 2-(hexylamino)-1-(4-methoxyphenyl)ethanol]",3.21,weak increase,induced it,significantly decreased,,,
"CCCCCCNCC(O)c1ccc([N+](=O)[O-])cc1 (stereo not drawn) [13S-G2, 2-(hexylamino)-1-(4-nitrophenyl)ethanol]",0.69,weak increase,,,did not increase the expression,13 to 26,
"CNCC(Cl)c1ccc(OC(C)=O)cc1 (stereo not drawn) [CpdA, reference compound]",,,,,,,2.84
